Laboratory results from ChEMBL document CHEMBL1142038, “Novel and potent NPY5 receptor antagonists derived from virtual screening and iterative parallel chemistry design” (Bioorg Med Chem Lett, 2005).

Target: T1, Neuropeptide Y receptor type 5 (Mus musculus, UniProt O70342)
T1 sequence (O70342 whole entry): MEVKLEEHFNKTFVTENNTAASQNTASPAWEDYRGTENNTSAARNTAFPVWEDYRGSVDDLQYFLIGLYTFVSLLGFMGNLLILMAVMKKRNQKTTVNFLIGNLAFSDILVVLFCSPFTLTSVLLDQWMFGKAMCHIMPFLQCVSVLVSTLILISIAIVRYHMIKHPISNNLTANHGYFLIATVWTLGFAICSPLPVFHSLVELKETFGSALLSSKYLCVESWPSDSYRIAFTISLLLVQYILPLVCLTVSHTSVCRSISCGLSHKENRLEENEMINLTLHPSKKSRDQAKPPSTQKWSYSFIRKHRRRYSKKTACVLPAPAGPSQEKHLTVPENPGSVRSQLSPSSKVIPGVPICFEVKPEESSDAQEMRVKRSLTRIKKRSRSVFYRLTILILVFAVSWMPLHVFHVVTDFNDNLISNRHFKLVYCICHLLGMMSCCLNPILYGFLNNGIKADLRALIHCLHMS
Assay: Inhibitory concentration against Neuropeptide Y receptor type 5 in mouse; Inactive; call rule not given here

Row | IC50 | Structure (SMILES)
1 | Not Active | O=C(c1cnc(Nc2cc(Cl)cc(Cl)c2)s1)c1ccccc1F

Target: T1, Neuropeptide Y receptor type 5
Assay: Inhibitory concentration against Neuropeptide Y receptor type 5 in mouse
Format: organism-based

Row | Structure (SMILES) | IC50
2 | O=C(c1cnc(Nc2ccc(Cl)cc2)s1)c1ccccc1F | 1.67 µM
3 | O=C(c1cnc(Nc2cccc(C(F)(F)F)c2)s1)c1ccccc1C(F)(F)F | 0.138 µM
4 | Cc1ccccc1C(=O)c1cnc(Nc2cccc(C(F)(F)F)c2)s1 | 0.063 µM
5 | CCc1ccccc1C(=O)c1cnc(Nc2cccc(C(F)(F)F)c2)s1 | 0.032 µM
6 | O=C(c1cccc(F)c1)c1cnc(Nc2cccc(C(F)(F)F)c2)s1 | 0.885 µM
7 | N#Cc1cccc(Nc2ncc(C(=O)c3ccccc3C(F)(F)F)s2)c1 | 0.02 µM
8 | COc1cccc(Nc2ncc(C(=O)c3ccccc3F)s2)c1 | 1 µM

Second part, the compound after the results:

Row | IC50 | Structure (SMILES)
9 | 0.014 µM | Cc1cc(C(=O)c2cnc(Nc3cccc(C#N)c3)s2)c(C)s1
10 | 2.23 µM | COc1ccc(C(=O)c2cnc(Nc3cccc(C#N)c3)s2)cc1
11 | 0.0042 µM | Cc1ccccc1C(=O)c1cnc(Nc2cccc(C#N)c2)s1
12 | 0.0028 µM | CCc1ccccc1C(=O)c1cnc(Nc2cccc(C#N)c2)s1
13 | 0.395 µM | Cc1cc(C(=O)c2cnc(Nc3cccc(C(F)(F)F)c3)s2)c(C)s1
14 | 0.019 µM | N#Cc1cccc(Nc2ncc(C(=O)c3ccccc3F)s2)c1
